Assay results: US7932384B2, “Reverse-turn mimetics and method relating thereto” (Choongwae Pharma Corporation, priority 2001, dated 2011)

Columns and labels:
surviving protein [1] = test: Survivin immunofluorescence microscopy in SW480 cells; type: cell-based
HCT116 cells = test: Flow cytometric analysis (FACS) of cell cycle, HCT116; type: cell-based; details: HCT116, 25 μM, 24 hours
Experimental: (§1) For FACS analysis, approx. 5×10^6 cells from Compound D-treated or vehicle-treated were fixed with 70% chilled ethanol and stored at −20° C. for at least 30 minutes. The cells were washed once with 1×PBS and incubated with propidium iodine (PI) solution (85 μg/ml propidium iodine, 0.1% Nonidet P-40, 10 mg/ml RNAse) for 30 minutes at room temperature. 10,000 stained cells for each sample were acquired using Beckman Coulter EPICS XL-MCL Flow Cytometry and the percentage of cells in different phase of the cell cycle was determined by Expo32 ADC software (Coulter Corporation, Miami, Fla., 33196).
(§2) It has been shown that inhibition of the expression of the cyclin D1 gene causes arrest at the G1/S-phase of the cell cycle (Shintani et al., “Infrequent alternations of RB pathway (Rb-p16INK4A-cyclin D1) in adenoid cystic carcinoma of salivary glands,” Anticancer Res. 20:2169-75 (2000)). […] The cells were subsequently stained with propidium iodide (PI) and analyzed for DNA content by FACS cytofluorometry.

surviving protein [2] = test: Western blot analysis of survivin protein; type: cell-based; details: 10 μM or 25 μM
GADPH = test: Real time RT-PCR gene expression, GADPH; type: cell-based; details: 25 μM, 24 hours; <0.5 significant decrease, >1.5 significant increase
Experimental: (§3) Real time reverse transcription-PCR analysis was performed according to the protocol provided with the SYBR Green PCR Master Mix Kit (Perkin Elmer Biosystems, Shelton, ST). […] The primers used for the RT-PCR reactions were [NT] and [NT].

[3] = test system: caspase-3/7 in SW480 cells; test: Caspase-3/7 activity assay, SW480; type: cell-based; details: SW480, 25 μM, 24 hours, compared to CCD18Co cells
Experimental: (§4) SW480, HCT116, and CCD18Co cells were plated at 10^5 cells per well (96-well plates) for 24 hours prior to treatment. […] 24 hours post treatment, cells were lysed and caspase activity was measured using a caspase-3/7 activity kit (Apo-One Homogeneous caspase-3/7 assay, #G77905, Promega). Relative fluorescence units (RFU) were obtained by subtracting the unit values of the blank (control, without cells) from the experimental measured values.
(§5) Caspases are cysteine proteases that are generally activated in a given population of cells triggered by apoptotic stimuli.

survivin = test: Real time RT-PCR gene expression, Survivin; type: cell-based; details: 25 μM, 24 hours; <0.5 significant decrease, >1.5 significant increase
Experimental: as §3

[4] = biological target: β-catenin/p300 interaction (Homo sapiens, UniProt Q09472); details: Emami et al., Cancer Cell, in press; cited from earlier work
β-catenin/p300 interaction, sequence (Q09472 whole entry): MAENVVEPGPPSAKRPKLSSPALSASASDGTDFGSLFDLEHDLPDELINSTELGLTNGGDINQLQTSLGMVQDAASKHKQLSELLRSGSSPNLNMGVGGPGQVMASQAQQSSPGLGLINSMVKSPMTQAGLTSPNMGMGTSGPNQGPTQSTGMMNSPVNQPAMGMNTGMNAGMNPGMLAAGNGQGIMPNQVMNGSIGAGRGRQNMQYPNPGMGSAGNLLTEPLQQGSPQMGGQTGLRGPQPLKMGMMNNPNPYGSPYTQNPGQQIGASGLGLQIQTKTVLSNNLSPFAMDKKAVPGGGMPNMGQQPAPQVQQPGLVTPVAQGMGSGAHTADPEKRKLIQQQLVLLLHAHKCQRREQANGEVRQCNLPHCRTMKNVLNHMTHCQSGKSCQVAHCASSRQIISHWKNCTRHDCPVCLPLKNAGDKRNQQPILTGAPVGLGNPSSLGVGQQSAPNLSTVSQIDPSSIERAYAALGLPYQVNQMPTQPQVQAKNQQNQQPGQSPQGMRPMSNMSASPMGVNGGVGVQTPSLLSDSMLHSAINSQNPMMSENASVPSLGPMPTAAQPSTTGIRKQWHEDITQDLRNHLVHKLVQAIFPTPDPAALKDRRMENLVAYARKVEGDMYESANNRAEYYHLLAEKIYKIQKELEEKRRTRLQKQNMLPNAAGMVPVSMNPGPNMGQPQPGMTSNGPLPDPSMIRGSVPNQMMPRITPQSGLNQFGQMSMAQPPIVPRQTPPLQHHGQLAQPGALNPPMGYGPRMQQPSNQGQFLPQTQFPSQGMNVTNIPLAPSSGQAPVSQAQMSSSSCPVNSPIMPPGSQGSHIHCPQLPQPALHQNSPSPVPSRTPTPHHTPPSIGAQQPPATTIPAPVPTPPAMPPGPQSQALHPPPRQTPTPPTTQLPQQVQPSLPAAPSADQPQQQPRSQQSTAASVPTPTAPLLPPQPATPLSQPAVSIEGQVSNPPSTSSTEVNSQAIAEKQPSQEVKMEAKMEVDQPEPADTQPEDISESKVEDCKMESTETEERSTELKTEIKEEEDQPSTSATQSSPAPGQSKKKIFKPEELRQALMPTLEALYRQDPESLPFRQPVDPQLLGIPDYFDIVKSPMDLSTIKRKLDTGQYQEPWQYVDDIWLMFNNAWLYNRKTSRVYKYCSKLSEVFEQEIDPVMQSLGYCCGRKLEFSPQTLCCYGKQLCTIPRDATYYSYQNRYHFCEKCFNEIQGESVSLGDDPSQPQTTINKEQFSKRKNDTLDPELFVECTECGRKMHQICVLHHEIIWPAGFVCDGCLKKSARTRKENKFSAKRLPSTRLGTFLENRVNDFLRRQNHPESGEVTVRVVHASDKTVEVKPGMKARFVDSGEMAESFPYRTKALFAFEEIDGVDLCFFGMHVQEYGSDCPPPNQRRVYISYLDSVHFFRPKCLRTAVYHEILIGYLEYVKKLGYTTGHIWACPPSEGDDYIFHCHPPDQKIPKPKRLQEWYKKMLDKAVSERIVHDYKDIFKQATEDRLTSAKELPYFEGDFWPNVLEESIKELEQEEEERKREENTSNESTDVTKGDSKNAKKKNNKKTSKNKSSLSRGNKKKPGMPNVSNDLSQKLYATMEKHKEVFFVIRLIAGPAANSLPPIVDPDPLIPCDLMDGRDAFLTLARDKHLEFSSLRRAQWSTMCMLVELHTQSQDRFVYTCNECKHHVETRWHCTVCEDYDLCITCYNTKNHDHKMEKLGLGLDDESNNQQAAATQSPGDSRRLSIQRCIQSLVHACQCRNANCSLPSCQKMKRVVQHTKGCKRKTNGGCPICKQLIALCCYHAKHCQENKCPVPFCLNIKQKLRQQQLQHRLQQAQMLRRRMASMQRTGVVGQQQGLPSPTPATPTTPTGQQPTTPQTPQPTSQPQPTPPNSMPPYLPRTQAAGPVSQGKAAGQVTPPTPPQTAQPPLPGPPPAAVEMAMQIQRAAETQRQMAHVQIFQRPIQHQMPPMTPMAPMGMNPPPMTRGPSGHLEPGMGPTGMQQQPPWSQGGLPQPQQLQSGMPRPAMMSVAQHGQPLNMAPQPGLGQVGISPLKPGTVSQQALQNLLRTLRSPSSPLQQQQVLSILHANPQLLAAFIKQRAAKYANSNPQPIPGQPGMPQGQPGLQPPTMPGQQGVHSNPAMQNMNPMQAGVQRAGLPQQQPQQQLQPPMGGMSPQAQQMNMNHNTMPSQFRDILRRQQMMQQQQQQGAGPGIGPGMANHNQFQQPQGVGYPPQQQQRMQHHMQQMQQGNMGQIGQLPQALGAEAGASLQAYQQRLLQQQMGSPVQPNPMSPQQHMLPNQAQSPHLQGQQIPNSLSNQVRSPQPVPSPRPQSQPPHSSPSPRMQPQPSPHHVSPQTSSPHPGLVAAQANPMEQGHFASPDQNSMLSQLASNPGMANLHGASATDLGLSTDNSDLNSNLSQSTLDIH

SW480 cells [5] = test: Flow cytometric analysis (FACS) of cell cycle, SW480; type: cell-based; details: SW480, 25 μM, 24 hours
Experimental: as §1, §2

GADD-153 = test: Real time RT-PCR gene expression, GADD-153; type: cell-based; details: 25 μM, 24 hours; <0.5 significant decrease, >1.5 significant increase
Experimental: as §3

Ubiquitin = test: Real time RT-PCR gene expression, Ubiquitin; type: cell-based; details: 25 μM, 24 hours; <0.5 significant decrease, >1.5 significant increase
Experimental: as §3

survivin promoter = test: Survivin luciferase reporter in SW480 cells; type: cell-based; details: SW480 cells, various concentrations
surviving promoter [6] = test: Survivin promoter luciferase reporter in wild type, CBP+/−, p300+/− 3T3 cells; type: cell-based; details: with or without Wnt1
Excerpt: A plasmid containing luciferase under the control of surviving promoter was constructed and transfected into wild type, CBP+/−, or p300+/−3T3 cells.

SW480 cells [7] = test: Soft agar colony formation assay; type: cell-based; details: SW480, 0.25-5 μM
Experimental: The soft agar colony formation assay was conducted with SW480 cells by some modification of the procedure previously described (Moody et al., “A vasoactive intestinal peptide antagonist inhibits non-small cell lung cancer growth,” Proc. Natl. Acad. Sci. USA. 90:4345-49 (1993)).
Each well (35 mm) of a 6-well plate (Nalge Nunc International, Roskide, Denmark) was coated with 1 ml of 0.8% bottom agar in DMEM medium containing 10% fetal bovine serum. After it was solidified, 1 ml of DMEM medium containing 0.4% top agar, 10% fetal bovine serum, compound doubly concentrated, and 5,000 single viable cells was added to each well. The cultures were incubated at 37° C. in humidified 5% CO2 incubator. Colonies in soft agar were monitored daily and photographed after incubation for 8 days. Colonies>60 μm in diameter were counted.

[8] = test system: PC-12 cells overexpressing PS-1/L286V; test: Neurite outgrowth and differentiation of PC-12 PS-1/L286V cells; type: cell-based, Rat; details: PS-1/L286V mutant PC-12 cells, 10 μM plus NGF
Experimental: Cell Differentiation. Cell culture dishes were pre-coated overnight with 0.25 mg/ml collagen (Cohesion, CA), 10 μg/ml Poly-L-Lysine (Sigma-Aldrich, St. Louis, Mo.) and 12 μg/ml Polyethyleneimine (ICN, La Mesa, Calif.). Cells were cultured on coated dishes at 15,000 cells/cm^2, and differentiated into a neuron-like phenotype by incubation in medium with reduced serum (1% fetal bovine serum), containing 50 ng/ml nerve growth factor (NGF) (Sigma-Aldrich) for 10 days. NGF-containing medium was changed every 2-3 days.
Differentiated PC-12/L286V cells were treated with increasing concentrations of this compound for 4 hours. Transfection was then initiated after this treatment period.
Quantitation of Neurite Outgrowth. Cell counts were taken from six randomly chosen microscopic fields (10×). […] The number of cells with such outgrowths was then expressed as a percentage of the total number of cells. Values obtained were from duplicates of three independent experiments.

[9] = biological target: β-catenin/CBP interaction (Homo sapiens, UniProt Q92793); details: Emami et al., Cancer Cell, in press; cited from earlier work
β-catenin/CBP interaction, sequence (Q92793 whole entry): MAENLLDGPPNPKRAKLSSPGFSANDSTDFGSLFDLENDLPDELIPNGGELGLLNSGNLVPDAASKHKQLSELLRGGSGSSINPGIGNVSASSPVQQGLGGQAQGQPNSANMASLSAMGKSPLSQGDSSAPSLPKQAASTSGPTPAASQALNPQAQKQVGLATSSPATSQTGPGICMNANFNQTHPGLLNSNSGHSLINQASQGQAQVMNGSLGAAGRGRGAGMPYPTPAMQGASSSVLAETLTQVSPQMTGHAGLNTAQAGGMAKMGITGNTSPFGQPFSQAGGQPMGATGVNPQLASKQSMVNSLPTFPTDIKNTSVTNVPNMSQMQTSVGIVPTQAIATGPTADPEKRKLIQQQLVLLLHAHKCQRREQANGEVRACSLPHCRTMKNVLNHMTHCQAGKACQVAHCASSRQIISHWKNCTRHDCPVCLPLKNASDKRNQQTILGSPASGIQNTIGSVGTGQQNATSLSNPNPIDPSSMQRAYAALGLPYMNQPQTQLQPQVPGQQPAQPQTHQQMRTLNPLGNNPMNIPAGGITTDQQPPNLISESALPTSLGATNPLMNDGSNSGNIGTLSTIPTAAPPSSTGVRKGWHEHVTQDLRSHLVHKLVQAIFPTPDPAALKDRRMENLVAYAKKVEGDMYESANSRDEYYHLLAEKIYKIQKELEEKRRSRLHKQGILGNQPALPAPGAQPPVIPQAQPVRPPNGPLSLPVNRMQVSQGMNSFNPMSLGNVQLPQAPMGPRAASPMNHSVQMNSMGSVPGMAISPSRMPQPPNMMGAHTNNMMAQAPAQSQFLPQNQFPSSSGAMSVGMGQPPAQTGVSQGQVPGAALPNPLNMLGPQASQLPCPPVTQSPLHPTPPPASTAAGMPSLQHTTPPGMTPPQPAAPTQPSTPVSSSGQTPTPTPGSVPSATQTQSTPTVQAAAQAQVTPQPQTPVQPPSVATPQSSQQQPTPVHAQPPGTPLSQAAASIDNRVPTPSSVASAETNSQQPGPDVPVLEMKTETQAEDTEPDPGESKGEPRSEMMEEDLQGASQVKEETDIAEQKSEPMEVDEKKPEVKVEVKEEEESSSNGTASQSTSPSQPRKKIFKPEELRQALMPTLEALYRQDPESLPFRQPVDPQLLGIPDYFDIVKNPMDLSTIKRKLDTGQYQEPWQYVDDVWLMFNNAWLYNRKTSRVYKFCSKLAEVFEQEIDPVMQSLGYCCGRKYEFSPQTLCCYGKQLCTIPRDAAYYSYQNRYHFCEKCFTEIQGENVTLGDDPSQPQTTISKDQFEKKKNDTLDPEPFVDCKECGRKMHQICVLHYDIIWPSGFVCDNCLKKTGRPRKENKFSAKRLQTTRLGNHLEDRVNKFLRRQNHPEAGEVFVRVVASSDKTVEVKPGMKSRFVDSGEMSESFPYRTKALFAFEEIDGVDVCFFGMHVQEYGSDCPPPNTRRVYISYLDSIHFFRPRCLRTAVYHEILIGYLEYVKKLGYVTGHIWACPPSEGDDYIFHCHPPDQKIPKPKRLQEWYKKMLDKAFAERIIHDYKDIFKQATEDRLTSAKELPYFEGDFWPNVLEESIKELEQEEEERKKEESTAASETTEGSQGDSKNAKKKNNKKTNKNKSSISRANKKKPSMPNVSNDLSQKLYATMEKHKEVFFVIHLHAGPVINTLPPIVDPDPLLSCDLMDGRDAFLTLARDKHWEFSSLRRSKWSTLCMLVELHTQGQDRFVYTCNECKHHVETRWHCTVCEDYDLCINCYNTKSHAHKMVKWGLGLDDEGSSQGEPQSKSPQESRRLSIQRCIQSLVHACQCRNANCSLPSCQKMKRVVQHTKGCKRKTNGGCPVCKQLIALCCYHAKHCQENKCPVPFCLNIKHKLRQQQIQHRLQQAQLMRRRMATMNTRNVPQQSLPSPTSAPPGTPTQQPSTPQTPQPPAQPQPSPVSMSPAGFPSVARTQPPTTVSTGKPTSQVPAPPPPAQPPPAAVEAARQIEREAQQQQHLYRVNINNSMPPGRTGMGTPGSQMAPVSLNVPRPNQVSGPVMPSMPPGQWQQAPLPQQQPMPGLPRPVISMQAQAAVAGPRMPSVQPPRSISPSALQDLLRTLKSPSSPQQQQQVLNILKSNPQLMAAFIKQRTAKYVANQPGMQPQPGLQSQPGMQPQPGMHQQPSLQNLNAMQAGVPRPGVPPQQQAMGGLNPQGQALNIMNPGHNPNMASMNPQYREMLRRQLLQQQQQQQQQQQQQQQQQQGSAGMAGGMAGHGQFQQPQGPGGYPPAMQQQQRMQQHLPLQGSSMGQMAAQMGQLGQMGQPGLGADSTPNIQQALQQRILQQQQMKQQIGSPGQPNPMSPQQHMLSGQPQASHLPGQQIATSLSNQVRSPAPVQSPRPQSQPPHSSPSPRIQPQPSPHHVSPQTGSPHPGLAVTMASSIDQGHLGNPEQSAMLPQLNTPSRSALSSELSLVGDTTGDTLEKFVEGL

[10] = test system: caspase-3/7 in HCT116 cells; test: Caspase-3/7 activity assay, HCT116; type: cell-based; details: HCT116, 25 μM, 24 hours, compared to CCD18Co cells
Experimental: as §4, §5

surviving promoter [11] = test: ChIP assay on SW480 cells (survivin promoter occupancy); type: cell-based; details: SW480, 25 μM, 18 hours
HLAC = test: Real time RT-PCR gene expression, HLAC; type: cell-based; details: 25 μM, 24 hours; <0.5 significant decrease, >1.5 significant increase
Experimental: as §3

Antigen KI-67 = test: Real time RT-PCR gene expression, Antigen KI-67; type: cell-based; details: 25 μM, 24 hours; <0.5 significant decrease, >1.5 significant increase
Experimental: as §3

MIC-1 = test: Real time RT-PCR gene expression, MIC-1; type: cell-based; details: 25 μM, 24 hours; <0.5 significant decrease, >1.5 significant increase
Experimental: as §3

caspase 3 = test: Caspase 3 activity in cultured tumor cells; type: cell-based; details: 2.5 μM or 5.0 μM

## O=C1[C@H](Cc2ccc(O)cc2)N2C(=O)CCN(C(=O)NCc3ccccc3)[C@H]2CN1Cc1cccc2ccccc12 [Compound D]
Surviving protein [1]
  survivin protein (immunofluorescence microscopy): little or no surviving protein was detected
HCT116 cells
  cell cycle distribution (FACS, PI): increased accumulation at G1/S-phase of the cell cycle
Surviving protein [2]
  amount of survivin protein (Western blot): reduced the amount of the surviving protein
GADPH
  Ratio (Treated/DMSO Control) GADPH: 0.98
[3]
  caspase-3/7 activity: specifically and significantly activated the caspase-3/7 pathway
survivin
  Ratio (Treated/DMSO Control) Survivin: 0.30
[4]
  blocking of β-catenin/p300 interaction: not the β-catenin/p300 interaction
SW480 cells [5]
  cell cycle distribution (FACS, PI): increased accumulation at G1/S-phase of the cell cycle
GADD-153
  Ratio (Treated/DMSO Control) GADD-153: 7.00
Ubiquitin
  Ratio (Treated/DMSO Control) Ubiquitin: 0.98
Survivin promoter
  survivin expression (luciferase reporter): inhibit expression of surviving in SW480 cells
Surviving promoter [6]
  survivin gene expression (promoter luciferase): reduces expression of the surviving gene
SW480 cells [7]
  number of colonies formed in soft agar: dose dependent decrease in the number of colonies formed
[8]
  percentage of cells bearing neurites greater than twice the length of the cell body: substantially increased the percentage of cells bearing neurites
[8]; 10 days
  neurite outgrowth and differentiation: essentially normal neurite outgrowth and differentiation
[9]
  blocking of β-catenin/CBP interaction: selectively blocks the β-catenin/CBP interaction
[10]
  caspase-3/7 activity: specifically and significantly activated the caspase-3/7 pathway
Surviving promoter [11]
  association of CBP, β-catenin, Tcf4 and acetylated histone with the survivin promoter (ChIP): decreases the association of all these proteins with the surviving promoter
HLAC
  Ratio (Treated/DMSO Control) HLAC: 1.01
Antigen KI-67
  Ratio (Treated/DMSO Control) Antigen KI-67: 0.45
MIC-1
  Ratio (Treated/DMSO Control) MIC-1: 7.0
Caspase 3
  caspase 3 activity: activated the caspase 3 activity
